Entries after “also recorded” stand apart in the source; their conditions may differ.
Assays:
Assay type in all cases: cell-based, human
CaSki cells [1] = experiment: Number of CaSki cells in culture; conditions: serum-free; 0.2 nM EGF, 2 nM epinephrine, or both, 24 h
Protocol: Near-confluent cultures of CaSki cells on filters were shifted for 14 hours to serum-free medium supplemented with 1% BSA and were treated in the same medium with 0.2 nM EGF, 2 nM epinephrine, or both for an additional 24 h. At the completion of treatments, cells were harvested off the filters and counted.

CaSki cells [2] = experiment: DNA synthesis by [3H]thymidine incorporation; conditions: 0.2 nM EGF, 2 nM epinephrine
Protocol: The experiments used CaSki cells, a line of transformed cervical epithelial cells that were obtained from the ATCC (Manassas, Va.) and were previously characterized as stably expressing phenotypic characteristics of human cervical epithelial cells. Cells were grown and subcultured in RPMI-1640 supplemented with 8% fetal calf serum, 0.2% NaHCO3, nonessential amino acids (0.1 mM), L-glutamine (2 mM), penicillin (100 U/ml), streptomycin (100 μg/ml), and gentamycin ([…]) at 37° C. in a […] humidified incubator. Cultures were routinely tested for mycoplasma. Preliminary experiments were conducted on cells plated on culture plates, and definitive experiments were repeated on cells plated on filters. Filters were either Anocell (Anocell-10, Oxon, UK, obtained through Sigma Chemicals, St. Louis, Mo.), Transwell (Costar Corporation, Cambridge, Mass.), or Millicell-CM (Millipore, Bedford, Mass.). Filters were coated on their upper (luminal) surface with 3-5 μg/cm collagen type IV and incubated at 37° C. overnight. […] DNA synthesis DNA synthesis was measured by [^3H]thymidine incorporation. […] The radioactivity [dpm/mg protein, determined by Bio-Rad (Hercules, Calif.) Protein Assay solution] of triplicated samples was determined by scintillation counting (LS1801 scintillation counter; Beckman, Fullerton, Calif.).

CaSki cells [3] = experiment: DNA solubilization assay (apoptosis)
Protocol: Twenty-four hours before the end of the experiment, cells were labeled with [^3H]thymidine (specific activity, 93 Ci/mmol; 5 μCi/1×10^6 cells) for 16 h. The medium was removed, and cells were washed three times with fresh medium lacking [^3H]thymidine and were incubated in the same medium for an additional 6 h. At the end of incubation, the supernatant was stored, and cells were lysed in 0.5 ml lysis buffer (10 mM Tris-HCl, pH 7.5; plus 1 mM EDTA-0.2% Triton X-100) for 1 h at 4° C. The intact chromatin was separated from the fragmented DNA by 5 min centrifugation at 4° C. in Eppendorf microcentrifuge at 12,000×g. The supernatant (lysate) was stored, while the pellet was resuspended in 0.5 ml of 1% sodium dodecyl sulfate (SDS). The radioactivity contained in the supernatants, lysates; and pellets was counted in a scintillation counter, and DNA fragmentation was calculated as: [% Solubilized DNA]=([cpm supernatant+cpm lysates]/[cpm supernatant+cpm lysate+cpm pellet])×100.

EGF: Human recombinant EGF, epidermal growth factor
number of cells in culture (CaSki cells [1]): increased the number of cells in culture | [3H]thymidine incorporation (CaSki cells [2]): increased [^3H]thymidine incorporation | effect on TNFα-induced increase in DNA solubilization (CaSki cells [3]; pretreatment 24 h: 1 μM zinterol or 0.2 nM EGF): no significant effect | effect on BzATP-induced apoptosis (DNA solubilization) (CaSki cells [3]; pretreatment: EGF 0.2 nM, zinterol/terbutaline 1 μM 24 h, forskolin 10 μM 14 h with IBMX, isoproterenol 10 μM, phenylephrine 100 μM): little effect; also recorded: no significant effect
